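Growth conditions: 96-well plates. Treatment: test compound, 48 hours, 5 concentrations. Analysis: linear interpolation between bracketing concentrations; unreached endpoints set to highest concentration. TGI: total growth inhibition.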
How the values were obtained:
Assay in all cases: NCI tumour cell line growth inhibition, 48 h
HOP-18 NSCLC = test system: HOP-18 NSCLC
DMS 273 small cell lung = test system: DMS 273 small cell lung
RXF-631 renal = test system: RXF-631 renal
LXFL 529 NSCLC = test system: LXFL 529 NSCLC
M19-MEL melanoma = test system: M19-MEL melanoma
DMS 114 small cell lung = test system: DMS 114 small cell lung
XF 498 CNS = test system: XF 498 CNS
KM20L2 colon = test system: KM20L2 colon
P388 leukemia = test system: P388 leukemia
P388/ADR leukemia = test system: P388/ADR leukemia
SN12K1 renal = test system: SN12K1 renal

Structure (SMILES) | TGI (HOP-18 NSCLC) [µM] | TGI (DMS 273 small cell lung) [µM] | TGI (RXF-631 renal) [µM] | TGI (LXFL 529 NSCLC) [µM] | TGI (M19-MEL melanoma) [µM] | TGI (DMS 114 small cell lung) [µM] | TGI (XF 498 CNS) [µM] | TGI (KM20L2 colon) [µM] | TGI (P388 leukemia) [µM] | TGI (P388/ADR leukemia) [µM] | TGI (SN12K1 renal) [µM]
COc1cccc2c1C(=O)c1c(O)c3c(c(O)c1C2=O)C[C@@](O)(C(C)=O)CC3S(=O)(=O)O (stereo not given in full) | > 100 | > 100 | > 100 | > 100 | > 100 | > 100 | > 100 | > 100 | – | – | –
CC1(C)OC[C@H](C(=N)OCc2ccccc2)O1 | – | > 100 | – | > 100 | > 100 | > 100 | > 100 | > 100 | – | – | –
CN(C)C(=O)Oc1c(Br)cc(Br)cc1C(=O)OCc1ccccc1 | 96.9 | > 73.2 | – | – | 44.3 | 53.1 | 49.2 | 57.7 | 43 | 41.6 | > 88.2
CCc1cc(C)cc2[n+]1CC=C2 | 0.0991 | 6.55 | – | 79.2 | 52.4 | 44.3 | 20.4 | 95.6 | – | – | –
CC[C@@]1(O)C[C@H](OC2CC(N(C)C)C(O)C(C)O2)c2c(cc3c(c2O)C(=O)c2c(O)ccc(O)c2C3=O)[C@H]1C(=O)OC (stereo not given in full) | 1.3 | 0.406 | – | – | 0.288 | 0.489 | 0.463 | 0.969 | 0.0317 | 0.0561 | 0.256
COC1OCC(O)C(NC(=O)N(C)N=O)C1O (stereo not given) | > 100 | > 100 | – | – | > 100 | > 100 | > 100 | > 100 | > 100 | > 100 | > 100
CCCCCCSc1nc(N)nc2nc[nH]c12 | > 72.6 | > 100 | – | – | > 100 | – | > 89.6 | > 100 | > 68 | 44.4 | > 100
CN(C)CCNC(=O)c1cccc2ccc(-c3ccc(Br)cc3)nc12 | 8.25 | 5.81 | – | – | 6.15 | 9.8 | 6.94 | 11.5 | 8.48 | 4.44 | 2.63
CC(=O)C(=O)NC1/C=C(C)\C=C/C(O)C/C=C(C)\C=C/C(O)CC2OC(=O)C1(C)C(=O)C2C (stereo not given) | > 100 | > 100 | – | – | > 100 | > 100 | – | > 100 | > 48.2 | > 66.6 | > 100
O=C(CCBr)N1CCN(C(=O)CCBr)CC1 | 238 | 168 | 134 | 137 | 252 | 140 | 133 | 277 | 293 | 181 | 196
CCOC(=O)c1nc2ccc(OC)cc2c2c1Cc1ccccc1-2 | – | > 100 | > 100 | > 100 | > 100 | > 100 | – | > 100 | – | – | –
